Columns and labels:
[1] = test system: actinic keratoses; assay: Randomized vehicle-controlled photodynamic therapy study, ALA with LDPE occlusion and blue light; type: in vivo, human
Source text: The actinic keratoses were present on the upper extremities, more specifically, on the dorsal surface of the hands and/or the forearm area between the elbow and the base of the fingers. Subjects ranged from 45 to 90 years of age (mean 68 years) and 90% had Fitzpatrick Skin Type I, II or III. Subjects were randomized to treatment in a 1:1 ratio. ALA was applied to lesions on the dorsal surface of one hand or the forearm for each subject, and the dorsal surface of the hand or the forearm was then occluded with low density polyethylene barrier for three hours. Following removal of the low density polyethylene barrier, a 10 J/cm^2 dose of blue light was delivered at 10 mW/cm^2, with treatment repeated after 8 weeks if any lesion(s) remained in the treatment area.
The recurrence rate corresponds to the percentage of subjects with at least one recurrent lesion during the 12 month follow up period following the evaluation at twelve weeks who had previously achieved complete clearance at twelve weeks following treatment.

[2] = Solubility in water; type: physicochemical
[3] = clinical; settings: both, human, plasma
Protocol: (§1) Two open-label, pharmacokinetic studies were carried out to evaluate the potential for systemic exposure of ALA and ALA and protoporphyrin IX (PpIX) when applied topically under occlusion, in a maximal use setting in patients with multiple actinic keratoses (AK) lesions on the upper extremities. In accordance with at least one embodiment, a 20% w/w topical composition of 5-aminolevulinic acid (ALA) was directly applied topically via an applicator to the upper extremities of the patients followed by covering with an occlusive, polyethylene film for a 3 hour incubation period. Light treatment was administered after the incubation period. Each subject received 10 J/cm^2 of visible blue light delivered at 10 mW/cm^2.
(§2) In the first of the two studies, a total of 29 participants were enrolled. The participants were males and non-pregnant females, aged 18 years or older. […] The subjects received one treatment and were followed until week four after treatment. The treatment area, designated at baseline for the duration of the study, was the extensor surface of both distal upper extremities, as defined in the protocol (i.e., the dorsal hands/forearms). In the second of the two studies, a total of 14 participants were enrolled. Males and non-pregnant females, aged 18 years or older, with at least six Grade 1 or Grade 2 AK lesions on one upper extremity treatment area and at least 12 Grade 1 or Grade 2 AK lesions on the other upper extremity treatment area, were eligible for the study.
(§3) The term “Cmax,” as used herein refers to maximum observed plasma concentrations based on actual values measured following study medication application.

[4] = clinical; settings: both, human, plasma, topical or ocular, 354 mg
Protocol: as §1, §2

[5] = Open-label maximal use pharmacokinetic study, topical ALA under occlusion (first study)
Protocol: as §1, §2, §3

[6] = Open-label maximal use pharmacokinetic study, topical ALA under occlusion (another experiment)
Protocol: as §1, §2

[7] = following a baseline correction
[8] = topical, 3 hour occlusion, not baseline corrected

SMILES: Cl.NCC(=O)CCC(=O)O [ALA, 5-amino-4-oxopentanoic acid hydrochloride]
- complete clearance (subjects with resolution of the actinic keratoses) ([1]; twelve weeks after initial treatment, 3 h LDPE occlusion, 10 J/cm^2 blue light, 42 out of 135 subjects): 31%
- recurrence rate ([1]; twelve-month follow-up of subjects with complete clearance at twelve weeks): 58%
- solubility in water [2]: highly soluble
- AUC(0-t) ([3]; topical): 282 ng·h/mL
- AUC(0-t) ([3]; topical or ocular): 577 ng·h/mL
- Cmax ([3]; topical or ocular, 354 mg): < 110 ng/mL
- bioavailability [4]: ~1%
- ALA geometric mean maximum plasma concentration [5, 7]: 80 ng/mL
- time of maximum plasma concentration (median) [5, 7]: 2 h
- geometric mean maximum plasma concentration [5, 8]: about 98 ng/mL
- time of maximum plasma concentration (median) [5, 8]: 2 h
- ALA geometric mean maximum plasma concentration [6, 7]: 39 ng/mL
- time of maximum plasma concentration (median) [6, 7]: 2 h
- time of maximum plasma concentration (median) ([6]; not baseline corrected): 2 h
- geometric mean maximum plasma concentration ([6]; topical, not baseline corrected): about 61 ng/ml
